According to patent publication US20120289577A1, “COMPOSITION FOR TREATING OR PREVENTING HEARING LOSS COMPRISING NAPHTHOQUINONE-BASED COMPOUNDS” (KT&G LIFE SCIENCES CORPORATION, priority 2009, published 2012):

What was measured:
[1] = test system: C57BL/6 mice (age-related hearing loss model); assay: Auditory brainstem response (ABR) threshold in animal model with age-related presbycusis; assay type: in vivo; details: for ABR threshold: feed containing 0.06% β-lapachone; for recovery of ABR thresholds in comparison with the control group: p<0.05
Protocol: C57BL/6 mice which are well known as a age-related hearing loss model were used for this experiment. 12-month-old C57BL/6 mice were directly purchased from Central Lab. Animal Inc. (Seoul, Korea), and bred up to 24 months of age with measuring hearing loss every 3 months. All mice used in this experiment were bred in an axenic (germfree) animal facility maintaining constant temperature (22 to 26° C.) and humidity (55 to 60%).
All experiments were conducted for groups divided into a control group freely providing normal feed, caloric restriction (CR) group limiting dietary to 70%, and βL group providing feed containing 0.06% β-lapachone (compound 1).
In order to evaluate auditory brainstem response, all lab animals were intramuscularly injected with a mixture of xylazine (5 mg/kg) and ketamine for anesthesia and the variation of auditory brainstem response threshold was measured using a TDT system (Tucker-Davis Technologies, FL, USA) in a soundproof room.
An insertable ear tip (3.5 mm, Nicolet Biomedical, Inc.) was placed in the external auditory meatus, electrodes were placed at scalp vertex (active electrode), the mastoid region of the ear of interest (reference electrode) and the mastoid region of the opposite ear (ground electrode), and the threshold of ABS was measured by starting with 90 dB HL intensity and then sequentially decreasing the intensity by 10 dB at 4, 8, 16 and 32 kHz.
There was no arousal response and death due to respiratory depression during the ABR test. The comparison of the ABR thresholds between groups was conducted by one-way analysis of variance (ANOVA) and P value of 0.05 or less was regarded as being significant.

[2] = test system: outer and inner hair cells of the inner ear; assay: TUNEL identification of hair cell damage in inner ear; assay type: in vivo; details: 24-month-old mice, βL group vs control group
Excerpt: In order to identify damage of hair cells, the inner ears of the lab animals were enucleated and subject to terminal deoxynucleotidyl transferase-mediated dUTP nick end-labeling (TUNEL) from the top of cochlea to middle circular part thereof, followed by analyzing TUNEL positive cells using a fluorescence microscope.

mitochondria = assay: Shape variations of mitochondria by transmission electron microscope (TEM); assay type: in vivo; details: 24-month-old mice, compared to 2-month-old lab animals
Excerpt: Also, in order to identify inhibition of age-related mitochondria damage by β-lapachone, the shape variations of mitochondria were detected for three groups of 24-month-old lab animals using a transmission electron microscope (TEM).

HMGB1 [3] = assay: HMGB1 expression in inner ear by tissue staining; assay type: in vivo; details: 21-month-old mice, compared to control and CR groups
Protocol: In order to identify an effect of β-lapachone against the expression of HMGB1 which is known to be important for the damage and shape variation of mitochondria, a tissue staining was conducted.

6-week-old C57BL/6 mice = assay type: in vivo; details: β-lapachone (10, 20 and 40 mg/kg/day) and cisplatin for 4 days, p<0.05
Protocol: 6-week-old C57BL/6 mice were bred in an axenic (germfree) animal facility maintaining constant temperature (22 to 26° C.) and humidity (55 to 60%).
The comparison of the ABR thresholds between groups was conducted by one-way analysis of variance (ANOVA) and P value of 0.05 or less was regarded as being significant.

[4] = test system: HEI-OC1 auditory hair cell line; assay type: cell-based; details: β-lapachone 30 minutes before treating with cisplatin, p<0.05
[5] = test system: outer and inner hair cells of Corti's organ explants; assay: Explants of the Corti's organ, shape and arrangement of hair cells; assay type: cell-based
[6] = test system: TNF-α, IL-6, HSP60, TLR2 and TLR4 expression in HEI-OC1 cells; assay: Expression of inflammation mediators by the PCR method; assay type: cell-based
HSP60 [7] = assay: Release amounts of HSP60 in mice by ELISA; assay type: in vivo
Protocol: (§1) It is generally known that HSP60 in mitochondria is released outside of the cells to bind to TLR2 or TLR4, thereby inducing strong inflammation. Accordingly, the release amounts of HSP60 in mice and HEI-OC1 cells were measured by the ELISA method.

HSP60 [8] = assay: Release amounts of HSP60 in HEI-OC1 cells by ELISA; assay type: cell-based
Protocol: as §1

HSP60 [9] = assay: Location variation of HSP60 by cell staining; assay type: cell-based
Excerpt: Also, location variation of HSP60 was identified by cell staining.

HMGB1 [10] = assay: Extracellular release of HMGB1 by ELISA; assay type: cell-based
Excerpt: HMGB1 is, together with HSP60, known as an important mediator for the activation of TLRs and the resulting inflammation. Accordingly, the extracellular release of HMGB1 was identified by the ELISA method.

[11] = HEI-OC1 cells treated with cisplatin

CC1(C)CCC2=C(O1)c1ccccc1C(=O)C2=O [β-lapachone]
ABR threshold ([1]; 15-month-old mice, 4 kHz): 63.33±11.55 dB SPL
ABR threshold ([1]; 15-month-old mice, 8 kHz): 33.33±15.28 dB SPL
ABR threshold ([1]; 15-month-old mice, 16 kHz): 46.67±5.77 dB SPL
ABR threshold ([1]; 15-month-old mice, 32 kHz): 53.33±5.77 dB SPL
ABR threshold ([1]; 18-month-old mice, 4 kHz): 80±0 dB SPL
ABR threshold ([1]; 18-month-old mice, 8 kHz): 46.67±11.55 dB SPL
ABR threshold ([1]; 18-month-old mice, 16 kHz): 56.67±11.55 dB SPL
ABR threshold ([1]; 18-month-old mice, 32 kHz): 66.67±11.55 dB SPL
recovery of ABR thresholds in comparison with the control group ([1]; 21-month-old mice, 4, 8, 16 and 32 kHz): statistically significant recovery at regions except for 16 kHz
ABR threshold ([1]; 21-month-old mice, 4 kHz): 56.67±5.77 dB SPL
ABR threshold ([1]; 21-month-old mice, 8 kHz): 46.67±5.77 dB SPL
ABR threshold ([1]; 21-month-old mice, 16 kHz): 53.33±15.28 dB SPL
ABR threshold ([1]; 21-month-old mice, 32 kHz): 46.67±5.77 dB SPL
recovery of ABR thresholds in comparison with the control group ([1]; 24-month-old mice, 4, 8, 16 and 32 kHz): statistically significant recovery at all regions
recovery of ABR threshold in comparison with the control group ([1]; 24-month-old mice, at 8 to 32 kHz except for 4 kHz): no less than 30 dB SPL
ABR threshold ([1]; 24-month-old mice, 4 kHz): 73.33±5.77 dB SPL
ABR threshold ([1]; 24-month-old mice, 8 kHz): 43.33±5.77 dB SPL
ABR threshold ([1]; 24-month-old mice, 16 kHz): 53.33±5.77 dB SPL
ABR threshold ([1]; 24-month-old mice, 32 kHz): 53.33±11.55 dB SPL
age-related apoptosis (TUNEL positive cells) in inner ear [2]: significantly inhibited the age-related apoptosis in the whole inner ear
number and shape of mitochondria (TEM) (mitochondria): number and shape of mitochondria similar to the 2-month-old lab animals
expression of HMGB1 in the inner ear (HMGB1 [3]): significantly decreased expression of HMGB1
recovery of ABR thresholds as compared to the CDDP group (6-week-old C57BL/6 mice): statistically significant recovery at all regions
protection from apoptosis by cisplatin (cell viability, MTT) [4]: protected the apoptosis by cisplatin in a concentration-dependent manner
shape and arrangement of the auditory hair cells ([5]; treated with both β-lapachone and cisplatin): maintained the shape and arrangement of the auditory hair cells similar to the control group
expression of inflammation mediators by cisplatin (TNF-α, IL-6, HSP60, TLR2, TLR4) ([6]; HEI-OC1 cells, β-lapachone 30 minutes before cisplatin): inhibited by β-lapachone in a concentration-dependent manner
release amounts of HSP60 (HSP60 [7]; mice treated with both β-lapachone and cisplatin): decreased release amounts of HSP60 in a β-lapachone concentration-dependent manner
release amounts of HSP60 (HSP60 [8]; HEI-OC1 cells treated with both β-lapachone and cisplatin): decreased release amounts of HSP60 in a β-lapachone concentration-dependent manner
location of HSP60 (HSP60 [9]; cells treated with both β-lapachone and cisplatin): HSP60 was expressed in only mitochondria like the normal cells
extracellular release amounts of HMGB1 (HMGB1 [10]; HEI-OC1 cells treated with cisplatin and β-lapachone, p<0.05): the release amounts decreased in a β-lapachone concentration-dependent manner

N.N.[Cl][Pt][Cl] [cisplatin, reference compound]
shape and arrangement of the outer and inner hair cells ([5]; treated with cisplatin): shape and arrangement of the outer and inner hair cells were changed
expression of inflammation mediators (TNF-α, IL-6, HSP60, TLR2, TLR4) [6, 11]: increased expression of inflammation-inducing cytokines such as TNF-α, IL-6 and HSP60 and inflammation mediators such as TLR2 and TLR4
release amounts of HSP60 (HSP60 [7]; mice treated with cisplatin, p<0.05): significantly increased release amounts of HSP60
release amounts of HSP60 (HSP60 [8]; HEI-OC1 cells treated with cisplatin, p<0.05): significantly increased release amounts of HSP60
location of HSP60 (HSP60 [9]; cells treated with cisplatin): HSP60 was almost expressed in cytoplasm
extracellular release of HMGB1 (HMGB1 [10]; [11]): extracellular release of excessive amounts of HMGB1
